Like-named read-outs stand apart in the source and are kept apart here. *1 amine or outer side, *2 acyl side, *3 side chain or, on linkers, in order; H or OH if unused. Where a SMILES comes first, the peptide text is derived from it. Where no end group is shown, it is not given here. [ ]: non-standard residue; d: D form. Leu(5,5,5,5',5',5'-F6) = N[C@@H](CC(C(F)(F)F)C(F)(F)F)C(=O)O; R5Me = hydrocarbon side chain-substituted amino acid; dNle(6-ylidene) = O=C([C@@H](CCCC=[*:3])N[*:1])[*:2]; dGly(6-heptenyl) = C=CCCCCC[C@@H](N)C(=O)O; Ala(5-hexenyl) = C=CCCCCC[C@H](N)C(=O)O; dNle(6-vinyl) = C=CCCCC[C@@H](N)C(=O)O; Gla = N[C@@H](CC(C(=O)O)C(=O)O)C(=O)O; Gly(octyl) = CCCCCCCC[C@H](N)C(=O)O; X6 = CCCCCCC[C@H](N[*:1])C(=O)[*:2]
What was measured:
[1] = Lipid (liposome) solubilization, turbidimetric method; format: biochemical
Procedure: As noted above, the other important parameter was phospholipid solubilization. A turbidimetric method is used to determine the solubilization capacity of peptides of the present invention. First, a three-fold serial titration of the peptide is prepared in a polypropylene v-shaped 96-well plate. The eight-point titration is done in phosphate-buffered saline (PBS, pH 7.5) or DMSO from a starting concentration that allows for addition to an optically-clear bottomed assay plate in <100 μl aliquots to yield a starting concentration of 500 μM in 200 μl final well volume. PBS is then added to each well to bring the total volume to 100 μl. Any bubbles in the wells must be dispersed to avoid erroneous results. Next, from a turbid but homogeneous emulsion of dimyristoyl phosphatidylcholine at 0.5 mg/ml in PBS, 100 μl is added to each well in the assay plate, the plate is inserted into the NEPHELOSTAR (BMG LABTECH INSTRUMENTS), and readings are taken immediately and every 15 minutes over 2 hours.
A true 0-point value is calculated by averaging the readings of the wells with phospholipid but no peptide. For each peptide concentration, a percent decrease in turbidity is calculated by subtracting the 0-point value from the corresponding 30 and 120 minute readings and dividing by that 0-point value. Finally the EC50 values for both time points are determined using PRISM software (Table 2).

[2] = target: T1, ABCA1 cholesterol transporter protein (Mus musculus, UniProt P41233); test: ABCA1-dependent cholesterol efflux from RAW mouse macrophage cells (in vitro RCT assay); format: cell-based; conditions: for EC50: read-out: EC50 in the cholesterol efflux assay (RCT in vitro assay)
T1 construct: endogenous in cells
Excerpt: Peptides of the present invention were designed based on amphipathic properties and their abilities to solubilize phospholipids and promote cholesterol efflux. The most direct functional measurement of efficacy for the ApoA-1 peptide mimetic is its capacity to improve the efflux of cholesterol from the cell. The RAW and J774 cell lines are reliable mouse macrophage cell lines frequently used in the art for this purpose. […] The RAW cell line is preferred and recited in the description below.
In the present assay, the RAW cells are plated at 1.5×10^5 cells/200 μl/well/48-well plate in DMEM complete medium (with 10% FBS from INVITROGEN and 1% penicillin-streptomycin-glutamine from GIBCO) and ^3H-cholesterol at 5 μCi/ml. After 24 hours incubation in a moist 37° C. atmosphere with 5% CO2, the spent medium is removed, the cells are washed once with serum-free DMEM (0.1% fatty acid free bovine serum albumin replaces the FBS), and fresh serum-free medium (200 μl) is added to each well. After overnight incubation in the serum-free medium to allow the cellular cholesterol pools to equilibrate, the spent medium is removed, and fresh serum-free medium is added with/without CPT-cAMP (150 μM final). Eight-point serial titrations of the peptide/s being tested are added at this time (duplicate titrations in plain medium without cAMP and duplicate titrations in medium containing cAMP).
After 24 hours incubation in the various conditions, the medium is harvested from each well and 50 μl aliquots are counted. The cells are then lysed by adding 500 μl of HEPES/Triton lysis buffer to each well. The lysis is facilitated by freezing and thawing once. After thawing, the lysates are mixed well and 50 μl aliquots are counted.
The percent efflux of each peptide in each medium condition (±cAMP) is calculated by dividing the total counts in the medium by the sum of the total counts in the medium and lysate. The percent efflux seen with plain medium is subtracted from the percent efflux seen with the cAMP-stimulated efflux to yield the reported ABCA1-stimulated values. EC50 values are determined using PRISM software (Table 2).

[3] = read-out: IC50 in the liposome solubilization assay

T1 sequence (P41233 whole entry): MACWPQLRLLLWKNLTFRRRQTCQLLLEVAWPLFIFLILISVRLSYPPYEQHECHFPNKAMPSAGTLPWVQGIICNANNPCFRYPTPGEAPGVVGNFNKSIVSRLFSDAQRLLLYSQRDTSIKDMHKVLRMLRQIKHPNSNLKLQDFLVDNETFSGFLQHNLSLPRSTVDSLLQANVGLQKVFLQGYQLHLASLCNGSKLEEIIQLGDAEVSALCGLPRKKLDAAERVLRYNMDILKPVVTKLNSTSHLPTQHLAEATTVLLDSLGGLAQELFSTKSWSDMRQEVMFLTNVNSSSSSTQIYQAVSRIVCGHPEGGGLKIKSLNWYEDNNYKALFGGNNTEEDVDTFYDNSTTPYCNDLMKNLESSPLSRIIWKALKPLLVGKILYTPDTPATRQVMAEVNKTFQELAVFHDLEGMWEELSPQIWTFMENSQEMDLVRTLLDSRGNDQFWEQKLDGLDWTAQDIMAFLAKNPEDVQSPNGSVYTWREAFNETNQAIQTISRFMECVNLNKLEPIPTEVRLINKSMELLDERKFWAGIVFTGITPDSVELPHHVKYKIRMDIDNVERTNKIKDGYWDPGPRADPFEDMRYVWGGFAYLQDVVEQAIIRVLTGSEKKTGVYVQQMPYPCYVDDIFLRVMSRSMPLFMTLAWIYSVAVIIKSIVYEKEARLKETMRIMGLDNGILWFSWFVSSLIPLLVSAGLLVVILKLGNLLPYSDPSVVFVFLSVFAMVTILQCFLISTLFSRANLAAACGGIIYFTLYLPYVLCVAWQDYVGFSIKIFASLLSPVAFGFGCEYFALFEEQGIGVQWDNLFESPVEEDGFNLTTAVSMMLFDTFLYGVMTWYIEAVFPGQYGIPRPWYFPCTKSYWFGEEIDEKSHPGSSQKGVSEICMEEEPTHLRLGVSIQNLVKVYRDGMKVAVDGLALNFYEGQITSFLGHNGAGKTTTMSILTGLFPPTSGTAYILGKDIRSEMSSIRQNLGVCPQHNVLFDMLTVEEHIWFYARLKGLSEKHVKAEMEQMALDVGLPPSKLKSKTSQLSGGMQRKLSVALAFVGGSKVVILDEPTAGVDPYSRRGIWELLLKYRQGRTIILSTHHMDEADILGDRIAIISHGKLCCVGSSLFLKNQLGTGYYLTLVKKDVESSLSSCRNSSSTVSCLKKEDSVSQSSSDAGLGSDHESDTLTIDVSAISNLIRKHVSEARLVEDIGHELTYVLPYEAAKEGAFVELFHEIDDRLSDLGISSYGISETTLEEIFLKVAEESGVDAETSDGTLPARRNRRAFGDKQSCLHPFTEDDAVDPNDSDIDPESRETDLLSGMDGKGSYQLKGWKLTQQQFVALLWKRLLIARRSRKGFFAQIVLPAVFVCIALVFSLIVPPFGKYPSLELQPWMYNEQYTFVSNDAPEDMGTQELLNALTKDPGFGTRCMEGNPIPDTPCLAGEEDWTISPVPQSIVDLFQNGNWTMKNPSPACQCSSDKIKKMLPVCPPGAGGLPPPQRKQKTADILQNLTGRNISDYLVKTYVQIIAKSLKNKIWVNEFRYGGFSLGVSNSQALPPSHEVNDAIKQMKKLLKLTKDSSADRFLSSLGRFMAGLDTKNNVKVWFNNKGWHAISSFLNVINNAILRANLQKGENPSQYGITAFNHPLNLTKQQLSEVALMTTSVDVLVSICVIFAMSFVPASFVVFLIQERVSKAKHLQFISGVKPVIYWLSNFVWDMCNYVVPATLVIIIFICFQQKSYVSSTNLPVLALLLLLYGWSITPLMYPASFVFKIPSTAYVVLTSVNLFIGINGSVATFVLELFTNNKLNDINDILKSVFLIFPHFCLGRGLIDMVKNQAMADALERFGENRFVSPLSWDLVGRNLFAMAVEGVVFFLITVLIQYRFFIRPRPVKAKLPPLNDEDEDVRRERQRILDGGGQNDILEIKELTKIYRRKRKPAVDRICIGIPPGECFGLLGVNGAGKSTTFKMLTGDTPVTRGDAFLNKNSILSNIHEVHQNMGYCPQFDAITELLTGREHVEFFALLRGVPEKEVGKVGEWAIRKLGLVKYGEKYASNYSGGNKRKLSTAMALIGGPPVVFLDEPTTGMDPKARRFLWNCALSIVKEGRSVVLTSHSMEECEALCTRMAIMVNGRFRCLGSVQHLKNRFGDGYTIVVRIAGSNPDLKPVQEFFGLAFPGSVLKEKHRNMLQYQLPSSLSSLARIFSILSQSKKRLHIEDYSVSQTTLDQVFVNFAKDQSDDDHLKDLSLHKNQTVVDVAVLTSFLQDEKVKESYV

**Q.** With PVLDEFREKLNEELEALKQKLK [compound 1] as the compound, how does the “LIPID SOLUBILIZATION IC50” value ([1]; Measured at 2 h) read?
**A.** NOT ACTIVE

**Q.** And the “ABCA1-DEPENDENT CHOLESTEROL EFFLUX EC50” value ([2]; RAW cells, cAMP-stimulated minus plain medium efflux)?
**A.** NOT ACTIVE

**Q.** Which IC50 [1, 3] does the source give for `C=CCCC[C@@H](NC(=O)[C@H](CCC(=O)O)NC(=O)[C@H](CC(N)=O)NC(=O)[C@H](CC(C)C)NC(=O)[C@@H](CCCC=C)NC(=O)[C@H](CCC(=O)O)NC(=O)[C@H](CCCNC(=N)N)NC(=O)[C@H](Cc1ccccc1)NC(=O)[C@H](CCC(=O)O)NC(=O)[C@H](CC(=O)O)NC(=O)[C@H](CC(C)C)NC(=O)[C@@H](NC(=O)[C@@H]1CCCN1C(C)=O)C(C)C)C(=O)N[C@@H](CC(C)C)C(=O)N[C@@H](CCC(=O)O)C(=O)N[C@@H](C)C(=O)N[C@@H](CC(C)C)C(=O)N[C@@H](CCCCN)C(=O)N[C@@H](CCC(N)=O)C(=O)N[C@@H](CCCCN)C(=O)N[C@@H](CC(C)C)C(=O)N[C@@H](CCCCN)C(N)=O` [SEQ ID NO 9, PVLDEFRER5HLNER5HLEALKQKLK] (Ac-PVLDEFRE[dNle(6-ylidene)]LNE[dNle(6-ylidene)]LEALKQKLK-NH2; C-terminus assumed) here?
**A.** 91 µM

**Q.** With `C=CCCCCC[C@H](NC(=O)[C@H](CCC(=O)O)NC(=O)[C@H](CC(N)=O)NC(=O)[C@H](CC(C)C)NC(=O)[C@H](CCCCN)NC(=O)[C@H](CCC(=O)O)NC(=O)[C@H](CCCNC(=N)N)NC(=O)[C@@H](CCCCC=C)NC(=O)[C@H](CCC(=O)O)NC(=O)[C@H](CC(=O)O)NC(=O)[C@H](CC(C)C)NC(=O)[C@@H](NC(=O)[C@@H]1CCCN1C(C)=O)C(C)C)C(=O)N[C@@H](CC(C)C)C(=O)N[C@@H](CCC(=O)O)C(=O)N[C@@H](C)C(=O)N[C@@H](CC(C)C)C(=O)N[C@@H](CCCCN)C(=O)N[C@@H](CCC(N)=O)C(=O)N[C@@H](CCCCN)C(=O)N[C@@H](CC(C)C)C(=O)N[C@@H](CCCCN)C(N)=O` [SEQ ID NO 13, PVLDER6HREKLNES7HLEALKQKLK] (Ac-PVLDE[dNle(6-vinyl)]REKLNE[Ala(5-hexenyl)]LEALKQKLK-NH2; C-terminus assumed) as the compound, how does the IC50 [1, 3] read?
**A.** 25 µM

**Q.** For `C=CCCCC[C@@H](NC(=O)[C@H](CCC(=O)O)NC(=O)[C@H](CC(N)=O)NC(=O)[C@H](CC(C)C)NC(=O)[C@H](CCCCN)NC(=O)[C@H](CCC(=O)O)NC(=O)[C@H](CCCNC(=N)N)NC(=O)[C@H](Cc1ccccc1)NC(=O)[C@H](CCC(=O)O)NC(=O)[C@H](CC(=O)O)NC(=O)[C@H](CC(C)C)NC(=O)[C@@H](NC(=O)[C@@H]1CCCN1C(C)=O)C(C)C)C(=O)N[C@@H](CC(C)C)C(=O)N[C@@H](CCC(=O)O)C(=O)N[C@@H](C)C(=O)N[C@@H](CC(C)C)C(=O)N[C@@H](CCCCN)C(=O)N[C@@H](CCC(N)=O)C(=O)N[C@@H](CCCCN)C(=O)N[C@@H](CC(C)C)C(=O)N[C@@H](CCCCN)C(N)=O` [SEQ ID NO 18, PVLDEFREKLNER6HLEALKQKLK] (Ac-PVLDEFREKLNE[dNle(6-vinyl)]LEALKQKLK-NH2; C-terminus assumed), which IC50 [1, 3] is on record?
**A.** 32 µM

**Q.** For `CC(=O)N1CCC[C@H]1C(=O)N[C@H](C(=O)N[C@@H](CC(C)C)C(=O)N[C@@H](CC(=O)O)C(=O)N[C@@H](CCC(=O)O)C(=O)N[C@@H](Cc1ccccc1)C(=O)N[C@@H](CCCNC(=N)N)C(=O)N[C@@H](CC(C(=O)O)C(=O)O)C(=O)N[C@@H](CCCCN)C(=O)N[C@@H](CC(C)C)C(=O)N[C@@H](CC(N)=O)C(=O)N[C@@H](CCC(=O)O)C(=O)N[C@@H](C)C(=O)N[C@@H](CC(C)C)C(=O)N[C@@H](CCC(=O)O)C(=O)N[C@@H](C)C(=O)N[C@@H](CC(C)C)C(=O)N[C@@H](CCCCN)C(=O)N[C@@H](CCC(N)=O)C(=O)N[C@@H](CCCCN)C(=O)N[C@@H](CC(C)C)C(=O)N[C@@H](CCCCN)C(N)=O)C(C)C` [compound 3] (Ac-PVLDEFR[Gla]KLNEALEALKQKLK-NH2; C-terminus assumed), which “LIPID SOLUBILIZATION IC50” value ([1]; Measured at 2 h) is on record?
**A.** NOT ACTIVE

**Q.** With `CCCCCCC[C@H](NC(=O)[C@H](CCC(=O)O)NC(=O)[C@H](CC(N)=O)NC(=O)[C@H](CC(C)C)NC(=O)[C@H](CCCCN)NC(=O)[C@H](CCC(=O)O)NC(=O)[C@H](CCCN=C(N)N)NC(=O)[C@H](Cc1ccccc1)NC(=O)[C@H](CCC(=O)O)NC(=O)[C@H](CC(=O)O)NC(=O)[C@H](CC(C)C)NC(=O)[C@@H](NC(=O)[C@@H]1CCCN1C(C)=O)C(C)C)C(=O)N[C@@H](CC(C)C)C(=O)N[C@@H](CCC(=O)O)C(=O)N[C@@H](C)C(=O)N[C@@H](CC(C)C)C(=O)N[C@@H](CCCCN)C(=O)N[C@@H](CCC(N)=O)C(=O)N[C@@H](CCCCN)C(=O)N[C@@H](CC(C)C)C(=O)N[C@@H](CCCCN)C(N)=O` [SEQ ID NO 34, PVLDEFREKLNES7H3LEALKQKLK] (Ac-PVLDEFREKLNE[X6]LEALKQKLK-NH2) as the compound, how does the EC50 [2] read?
**A.** 0.6 µM

**Q.** For `C=CCCCCC[C@@H](NC(=O)[C@H](CCC(=O)O)NC(=O)[C@H](CC(N)=O)NC(=O)[C@H](CC(C)C)NC(=O)[C@H](CCCCN)NC(=O)[C@H](CCC(=O)O)NC(=O)[C@H](CCCN=C(N)N)NC(=O)[C@H](Cc1ccccc1)NC(=O)[C@H](CCC(=O)O)NC(=O)[C@H](CC(=O)O)NC(=O)[C@H](CC(C)C)NC(=O)[C@@H](NC(=O)[C@@H]1CCCN1C(C)=O)C(C)C)C(=O)N[C@@H](CC(C)C)C(=O)N[C@@H](CCC(=O)O)C(=O)N[C@@H](C)C(=O)N[C@@H](CC(C)C)C(=O)N[C@@H](CCCCN)C(=O)N[C@@H](CCC(N)=O)C(=O)N[C@@H](CCCCN)C(=O)N[C@@H](CC(C)C)C(=O)N[C@@H](CCCCN)C(N)=O` [SEQ ID NO 21, PVLDEFREKLNER7HLEALKQKLK] (Ac-PVLDEFREKLNE[dGly(6-heptenyl)]LEALKQKLK-NH2), which EC50 [2] is on record?
**A.** 7.2 µM

**Q.** For `CCCCCCCC[C@H](NC(=O)[C@H](CCC(=O)O)NC(=O)[C@H](CC(N)=O)NC(=O)[C@H](CC(C)C)NC(=O)[C@H](CCCCN)NC(=O)[C@H](CCC(=O)O)NC(=O)[C@H](CCCN=C(N)N)NC(=O)[C@H](Cc1ccccc1)NC(=O)[C@H](CCC(=O)O)NC(=O)[C@H](CC(=O)O)NC(=O)[C@H](CC(C)C)NC(=O)[C@@H](NC(=O)[C@@H]1CCCN1C(C)=O)C(C)C)C(=O)N[C@@H](CC(C)C)C(=O)N[C@@H](CCC(=O)O)C(=O)N[C@@H](C)C(=O)N[C@@H](CC(C)C)C(=O)N[C@@H](CCCCN)C(=O)N[C@@H](CCC(N)=O)C(=O)N[C@@H](CCCCN)C(=O)N[C@@H](CC(C)C)C(=O)N[C@@H](CCCCN)C(N)=O` [SEQ ID NO 35, PVLDEFREKLNES8H3LEALKQKLK] (Ac-PVLDEFREKLNE[Gly(octyl)]LEALKQKLK-NH2), which EC50 [2] is on record?
**A.** 0.3 µM

**Q.** Which EC50 [2] does the source give for `CC(=O)N1CCC[C@H]1C(=O)N[C@H](C(=O)N[C@@H](CC(C)C)C(=O)N[C@@H](CC(=O)O)C(=O)N[C@@H](CCC(=O)O)C(=O)N[C@@H](Cc1ccccc1)C(=O)N[C@@H](CCCNC(=N)N)C(=O)N[C@@H](CCC(=O)O)C(=O)N[C@@H](CCCCN)C(=O)N[C@@H](CC(C)C)C(=O)N[C@@H](CC(N)=O)C(=O)N[C@@H](CCC(=O)O)C(=O)N[C@@H](CC(C(F)(F)F)C(F)(F)F)C(=O)N[C@@H](CC(C)C)C(=O)N[C@@H](CCC(=O)O)C(=O)N[C@@H](C)C(=O)N[C@@H](CC(C)C)C(=O)N[C@@H](CCCCN)C(=O)N[C@@H](CCC(N)=O)C(=O)N[C@@H](CCCCN)C(=O)N[C@@H](CC(C)C)C(=O)N[C@@H](CCCCN)C(N)=O)C(C)C` [SEQ ID NO 41, PVLDEFREKLNE-HFLEU-LEALKQKLK] (Ac-PVLDEFREKLNE[Leu(5,5,5,5',5',5'-F6)]LEALKQKLK-NH2; C-terminus assumed) here?
**A.** 1.1 µM

**Q.** For “16 (Ac-PVLDEFRE[R5Me]LNE[R5Me]LEALKQKLK; not fully specified (C-terminus)) [compound 16]”, which IC50 ([1]; Measured at 2 h, read-out: LIPID SOLUBILIZATION IC50) is on record?
**A.** 24 µM

**Q.** For “22 (Ac-PVLDEFREKLNEELEALKQXLK; not fully specified (residue 20, C-terminus); printed as PVLDEFREKLNEELEALKQR7HLK) [compound 22]”, which “ABCA1-DEPENDENT CHOLESTEROL EFFLUX, % at one concentration” value ([2]; AT 100 µM / @ 100) is on record?
**A.** 1.4% @ 100
